The compounds below were run against human α2δ-1 subunit of Cav2.2 calcium channel (Homo sapiens (Human), UniProt P54289) (assay: Binding assay to human α2δ-1 subunit of Cav2.2 calcium channel ([3H]-Gabapentin)). Settings: binding to α2δ-1, [3H]-Gabapentin; read-out: Ki (nM) α2δ-1.
Summary of the method: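 [3H]-gabapentin binding, 60 min at 27° C; nonspecific binding defined with 10 μM pregabalin. Terminated by filtration on PEI-presoaked GF/C filters, ice-cold 50 mM Tris-HCl pH 7.4 washes, then scintillation counting.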

Sequence of human α2δ-1 subunit of Cav2.2 calcium channel (P54289 25-1103): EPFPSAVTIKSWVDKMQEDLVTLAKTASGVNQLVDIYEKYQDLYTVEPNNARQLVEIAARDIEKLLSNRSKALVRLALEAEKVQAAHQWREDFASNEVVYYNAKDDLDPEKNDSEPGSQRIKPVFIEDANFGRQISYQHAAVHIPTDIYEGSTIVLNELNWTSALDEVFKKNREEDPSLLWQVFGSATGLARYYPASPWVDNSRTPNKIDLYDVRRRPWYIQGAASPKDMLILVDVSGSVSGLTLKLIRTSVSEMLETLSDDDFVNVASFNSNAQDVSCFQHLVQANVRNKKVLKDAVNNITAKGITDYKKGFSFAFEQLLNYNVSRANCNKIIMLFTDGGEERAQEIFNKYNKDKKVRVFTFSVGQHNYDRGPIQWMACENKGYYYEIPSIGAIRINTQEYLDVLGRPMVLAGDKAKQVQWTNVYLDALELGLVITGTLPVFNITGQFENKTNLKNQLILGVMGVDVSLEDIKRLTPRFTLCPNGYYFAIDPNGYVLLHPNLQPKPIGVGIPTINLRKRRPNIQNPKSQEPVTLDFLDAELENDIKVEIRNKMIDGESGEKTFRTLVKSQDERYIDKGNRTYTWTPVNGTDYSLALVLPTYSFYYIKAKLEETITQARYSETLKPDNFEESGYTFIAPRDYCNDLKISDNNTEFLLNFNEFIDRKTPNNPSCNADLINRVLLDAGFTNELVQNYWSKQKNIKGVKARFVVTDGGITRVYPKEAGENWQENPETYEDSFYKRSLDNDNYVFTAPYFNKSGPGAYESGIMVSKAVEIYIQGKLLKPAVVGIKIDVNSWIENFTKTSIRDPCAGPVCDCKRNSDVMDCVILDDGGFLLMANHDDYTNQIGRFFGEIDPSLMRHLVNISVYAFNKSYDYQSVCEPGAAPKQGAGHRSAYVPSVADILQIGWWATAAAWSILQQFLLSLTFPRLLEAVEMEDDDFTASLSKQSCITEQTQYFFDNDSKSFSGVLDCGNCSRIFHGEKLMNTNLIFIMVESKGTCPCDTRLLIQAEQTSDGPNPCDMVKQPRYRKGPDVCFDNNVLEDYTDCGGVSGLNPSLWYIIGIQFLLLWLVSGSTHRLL

Compound | Ki [nM]
CCNc1ncc2c(n1)N(C)CCN(c1cccc(OC(CCN(C)C(=O)OC(C)(C)C)c3cccnc3)c1)C2=O (stereo not shown) [Example 129, tert-butyl (3-(3-(2-(ethylamino)-9-methyl-5-oxo-5,7,8,9-tetrahydro-6H-pyrimido[4,5-e][1,4]diazepin-6-yl)phenoxy)-3-(pyridin-3-yl)propyl)(methyl) carbamate] | > 3000
CN(CC[C@@H](OCc1cccc(N2CCN(C)c3nc(N)ncc3C2=O)c1)c1ccccc1)C(=O)OC(C)(C)C [Example 130, tert-butyl (R)-(3-((3-(2-amino-9-methyl-5-oxo-5,7,8,9-tetrahydro-6H-pyrimido[4,5-e][1,4]diazepin-6-yl)benzyl)oxy)-3-phenylpropyl)(methyl) carbamate] | > 3000
CN(CC[C@@H](OCc1cccc(N2CCN(C)c3nc(N(C)C)ncc3C2=O)c1)c1ccccc1)C(=O)OC(C)(C)C [Example 131, tert-butyl (R)-(3-((3-(2-(dimethylamino)-9-methyl-5-oxo-5,7,8,9-tetrahydro-6H-pyrimido[4,5-e][1,4]diazepin-6-yl)benzyl)oxy)-3-phenylpropyl)(methyl) carbamate] | > 3000
CNc1ncc2c(n1)N(C)CCN(c1cccc(CO[C@H](CCN(C)C(=O)OC(C)(C)C)c3ccccc3)c1)C2=O [Example 132, tert-butyl (R)-methyl(3-((3-(9-methyl-2-(methylamino)-5-oxo-5,7,8,9-tetrahydro-6H-pyrimido[4,5-e][1,4]diazepin-6-yl)benzyl)oxy)-3-phenylpropyl)carbamate] | > 3000
CN(CCC(Oc1cccc(N2CCN(C)c3nc(N(C)C)ncc3C2=O)c1)c1cccs1)C(=O)OCC[Si](C)(C)C (stereo not shown) [Example 133, 2-(trimethylsilyl)ethyl (3-(3-(2-(dimethylamino)-9-methyl-5-oxo-5,7,8,9-tetrahydro-6H-pyrimido[4,5-e][1,4]diazepin-6-yl)phenoxy)-3-(thiophen-2-yl)propyl)(methyl) carbamate] | > 3000
CCNc1ncc2c(n1)N(C)CCN(c1cccc(OC(CCN(CCF)C(=O)OC(C)(C)C)c3cccs3)c1)C2=O (stereo not shown) [Example 134, tert-butyl (3-(3-(2-(ethylamino)-9-methyl-5-oxo-5,7,8,9-tetrahydro-6H-pyrimido[4,5-e][1,4]diazepin-6-yl)phenoxy)-3-(thiophen-2-yl)propyl)(2-fluoroethyl)carbamate] | > 3000

The next lines start with the values.

Ki [nM] | Compound
> 3000 | CCNc1ncc2c(n1)N(C)CCN(c1ccccc1OC(CCN(C)C(=O)OC(C)(C)C)c1ccccc1)C2=O (stereo not shown) [Example 125, tert-butyl (3-(2-(2-(ethylamino)-9-methyl-5-oxo-5,7,8,9-tetrahydro-6H-pyrimido[4,5-e][1,4]diazepin-6-yl)phenoxy)-3-phenylpropyl)(methyl) carbamate]
> 3000 | CCNc1ncc2c(n1)N(C)CCN(c1cccc(COC(CCN(C)C(=O)OC(C)(C)C)C(C)C)c1)C2=O (stereo not shown) [Example 126, tert-butyl (3-((3-(2-(ethylamino)-9-methyl-5-oxo-5,7,8,9-tetrahydro-6H-pyrimido[4,5-e][1,4]diazepin-6-yl)benzyl)oxy)-4-methylpentyl)(methyl) carbamate]
> 3000 | CCNc1ncc2c(n1)N(C)CCN(c1cccc(COC(C)CCN(C)C(=O)OC(C)(C)C)c1)C2=O (stereo not shown) [Example 127, tert-butyl (3-((3-(2-(ethylamino)-9-methyl-5-oxo-5,7,8,9-tetrahydro-6H-pyrimido[4,5-e][1,4]diazepin-6-yl)benzyl)oxy)butyl) (methyl)carbamate]
> 3000 | CCNc1ncc2c(n1)N(C)CCN(c1cccc(OC(CCN(C)C(=O)OC(C)(C)C)c3ccccn3)c1)C2=O (stereo not shown) [Example 128, tert-butyl (3-(3-(2-(ethylamino)-9-methyl-5-oxo-5,7,8,9-tetrahydro-6H-pyrimido[4,5-e][1,4]diazepin-6-yl)phenoxy)-3-(pyridin-2-yl)propyl)(methyl) carbamate]
